System: laparoscopic ports
Assay: Laparoscopic cutaneous studies: treated vs untreated laparoscopic port sites
Format: in vivo, human
Details: another patient, 10 days after the treatment
Experimental: Cellerity® 10 topical lotion has been used in single patient multiple sites laparoscopic procedure studies. The studies compared healing time, severity of scar formation and inflammation at laparoscopic ports with and without CGP treatment.
The treatment was started within 24 hours after the laparoscopic surgery. The patient was instructed to allow the applied lotion to dry completely before applying their clothes and not to wash the treatment area for two hours after the application. This procedure was performed twice a day for three full weeks. […] The untreated ports were grossly inflamed, had tissue necrosis at the incision site and desquamation of epithelium. It also remained inflamed and the staple sites were still prominent and erythematous. At the incision line, a glassy layer of fibroblastic scar tissue was present.
Steri-Strips to the left side of the incisions, and leaving the midline left untreated. […] The untreated midline scar remained as inflamed and delayed in the healing process by 3-4 weeks, because the inflamed situation must resolve before the healing can occur. That delay appeared to have allowed more fibroblastic growth in the untreated scar, than was present on the treated scars.

calcium glycerophosphate [CGP]
edematous changes vs untreated midline incision (left and right sides treated): no edematous changes | erythema vs untreated midline incision (left and right sides treated): less erythema | inflammation vs untreated midline incision (left and right sides treated): substantially less inflammation | difference between direct application (right side) and application through Steri-Strips (left side) (treatment started 24 hours after surgery): no difference

Source: patent publication US20140220094A1, “METHODS AND COMPOSITIONS FOR A LAPAROSCOPIC SURGERY” (Prelief Inc., priority 2009, published 2014)
